In patent publication US12459918B2, “Isoquinolinone derivatives serving as rock protein kinase inhibitors and use thereof” (GUANGZHOU OCUSUN OPHTHALMIC BIOTECHNOLOGY CO., LTD., priority 2019, dated 2025):

Tested on: New Zealand rabbits with normal intraocular pressure
Experiment: Reduction of intraocular pressure by repeated eye-drop administration for 14 days, experiment operation 1
Type: in vivo
Conditions: for Change of intraocular pressure: negative control minus group
Text: Experimental example 4. Experiment on reduction of intraocular pressure and ocular toxicity of New Zealand rabbits with normal intraocular pressure by repeated eye-drop administration for 14 days
The intraocular pressure reduction action and the potential ocular toxicity of compound 63 were explored by 14 days of repeated eye-drop administration in rabbits with normal intraocular pressure.
Male New Zealand rabbits, aged 97-127 days, weighted 2.6-3.5 kg, purchased from PizhouDongfang Breeding Co. Ltd.
The male New Zealand rabbits were randomly divided into 7 groups, with 6 rabbits per group. Animals were randomly divided according to body weight Animals in 1-7 groups were eye-dropped with solvent/control sample/test sample in both eyes, the volume of the administration was all 50 μL/eye, once per day for 14 consecutive days, and the day of the administration was recorded as Day 1. On Day 1, intraocular pressure of the animals was measured before the administration and in 1, 2, 4, 6, 8 and 10 hours after the administration, respectively; on Days 2-14, intraocular pressure of the animals was measured in 1 hour after daily administration for the group administered with K-115, and intraocular pressure of the animal was measured in 4 hours after daily administration for the other groups.

[1] = 2.0 mg/mL once per day, Day 2, 4 hours after daily administration
[2] = 2.0 mg/mL once per day, Day 3, 4 hours after daily administration
[3] = 2.0 mg/mL once per day, Day 4, 4 hours after daily administration
[4] = 2.0 mg/mL once per day, Day 5, 4 hours after daily administration
[5] = 2.0 mg/mL once per day, Day 6, 4 hours after daily administration
[6] = 2.0 mg/mL once per day, Day 7, 4 hours after daily administration
[7] = 4.0 mg/mL once per day, Day 2, 4 hours after daily administration
[8] = 4.0 mg/mL once per day, Day 3, 4 hours after daily administration
[9] = 4.0 mg/mL once per day, Day 4, 4 hours after daily administration
[10] = 4.0 mg/mL once per day, Day 5, 4 hours after daily administration
[11] = 4.0 mg/mL once per day, Day 6, 4 hours after daily administration
[12] = 4.0 mg/mL once per day, Day 7, 4 hours after daily administration
[13] = 8.0 mg/mL once per day, Day 2, 4 hours after daily administration
[14] = 8.0 mg/mL once per day, Day 3, 4 hours after daily administration
[15] = 8.0 mg/mL once per day, Day 4, 4 hours after daily administration
[16] = 8.0 mg/mL once per day, Day 5, 4 hours after daily administration
[17] = 8.0 mg/mL once per day, Day 6, 4 hours after daily administration
[18] = 8.0 mg/mL once per day, Day 7, 4 hours after daily administration

Cc1ccc(C(=O)OCn2cc(C)c3c(S(=O)(=O)N4CC[C@H](N)C4)cccc3c2=O)c(C)c1 [Compound 63]
Change of intraocular pressure (1.0 mg/mL, Day 1, before administration): −0.05 mmHg
Mean intraocular pressure of both eyes (2.0 mg/mL both eyes, Day 1, 1 hour after administration): 8.56 mmHg
Mean intraocular pressure of both eyes (2.0 mg/mL both eyes, Day 1, 2 hours after administration): 7.47 mmHg
Mean intraocular pressure of both eyes (2.0 mg/mL both eyes, Day 1, 4 hours after administration): 7.47 mmHg
Mean intraocular pressure of both eyes (2.0 mg/mL both eyes, Day 1, 6 hours after administration): 7.25 mmHg
Mean intraocular pressure of both eyes (2.0 mg/mL both eyes, Day 1, 8 hours after administration): 8.44 mmHg
Mean intraocular pressure of both eyes (2.0 mg/mL both eyes, Day 1, 10 hours after administration): 9.67 mmHg
Mean intraocular pressure of both eyes (2.0 mg/mL both eyes, Day 1, before administration): 9.67 mmHg
Mean intraocular pressure of both eyes [1]: 7.03 mmHg
Change of intraocular pressure [1]: 4.05 mmHg
Mean intraocular pressure of both eyes [2]: 7.25 mmHg
Change of intraocular pressure [2]: 3.14 mmHg
Mean intraocular pressure of both eyes [3]: 6.86 mmHg
Change of intraocular pressure [3]: 3.75 mmHg
Mean intraocular pressure of both eyes [4]: 6.47 mmHg
Change of intraocular pressure [4]: 4.5 mmHg
Mean intraocular pressure of both eyes [5]: 5.92 mmHg
Change of intraocular pressure [5]: 3.39 mmHg
Mean intraocular pressure of both eyes [6]: 5.78 mmHg
Change of intraocular pressure [6]: 4.28 mmHg
Change of intraocular pressure (2.0 mg/mL once per day, Day 8, 4 hours after daily administration): 4.53 mmHg
Change of intraocular pressure (2.0 mg/mL once per day, Day 9, 4 hours after daily administration): 3.72 mmHg
Change of intraocular pressure (2.0 mg/mL once per day, Day 10, 4 hours after daily administration): 3.81 mmHg
Change of intraocular pressure (2.0 mg/mL once per day, Day 11, 4 hours after daily administration): 3.66 mmHg
Change of intraocular pressure (2.0 mg/mL once per day, Day 12, 4 hours after daily administration): 3.5 mmHg
Change of intraocular pressure (2.0 mg/mL once per day, Day 13, 4 hours after daily administration): 4.28 mmHg
Change of intraocular pressure (2.0 mg/mL once per day, Day 14, 4 hours after daily administration): 3.91 mmHg
Change of intraocular pressure (2.0 mg/mL, Day 1, 1 hour after administration): 1.75 mmHg
Change of intraocular pressure (2.0 mg/mL, Day 1, 2 hours after administration): 3.5 mmHg
Change of intraocular pressure (2.0 mg/mL, Day 1, 4 hours after administration): 3.84 mmHg
Change of intraocular pressure (2.0 mg/mL, Day 1, 6 hours after administration): 4.69 mmHg
Change of intraocular pressure (2.0 mg/mL, Day 1, 8 hours after administration): 4.53 mmHg
Change of intraocular pressure (2.0 mg/mL, Day 1, 10 hours after administration): 4.75 mmHg
Change of intraocular pressure (2.0 mg/mL, Day 1, before administration): 0.22 mmHg
Mean intraocular pressure of both eyes (4 mg/mL both eyes, Day 1, 1 hour after administration): 10.44 mmHg
Mean intraocular pressure of both eyes (4 mg/mL both eyes, Day 1, 2 hours after administration): 7.81 mmHg
Mean intraocular pressure of both eyes (4 mg/mL both eyes, Day 1, 4 hours after administration): 6.47 mmHg
Mean intraocular pressure of both eyes (4 mg/mL both eyes, Day 1, 6 hours after administration): 6.22 mmHg
Mean intraocular pressure of both eyes (4 mg/mL both eyes, Day 1, 8 hours after administration): 7.33 mmHg
Mean intraocular pressure of both eyes (4 mg/mL both eyes, Day 1, 10 hours after administration): 8.64 mmHg
Mean intraocular pressure of both eyes (4 mg/mL both eyes, Day 1, before administration): 9.67 mmHg
Mean intraocular pressure of both eyes [7]: 6.53 mmHg
Change of intraocular pressure [7]: 4.55 mmHg
Mean intraocular pressure of both eyes [8]: 5.58 mmHg
Change of intraocular pressure [8]: 4.81 mmHg
Mean intraocular pressure of both eyes [9]: 5.53 mmHg
Change of intraocular pressure [9]: 5.08 mmHg
Mean intraocular pressure of both eyes [10]: 6.61 mmHg
Change of intraocular pressure [10]: 4.36 mmHg
Mean intraocular pressure of both eyes [11]: 5.47 mmHg
Change of intraocular pressure [11]: 3.84 mmHg
Mean intraocular pressure of both eyes [12]: 5.56 mmHg
Change of intraocular pressure [12]: 4.5 mmHg
Change of intraocular pressure (4.0 mg/mL once per day, Day 8, 4 hours after daily administration): 4.53 mmHg
Change of intraocular pressure (4.0 mg/mL once per day, Day 9, 4 hours after daily administration): 3.97 mmHg
Change of intraocular pressure (4.0 mg/mL once per day, Day 10, 4 hours after daily administration): 4.67 mmHg
Change of intraocular pressure (4.0 mg/mL once per day, Day 11, 4 hours after daily administration): 3.86 mmHg
Change of intraocular pressure (4.0 mg/mL once per day, Day 12, 4 hours after daily administration): 3.64 mmHg
Change of intraocular pressure (4.0 mg/mL once per day, Day 13, 4 hours after daily administration): 4.36 mmHg
Change of intraocular pressure (4.0 mg/mL once per day, Day 14, 4 hours after daily administration): 4.64 mmHg
Change of intraocular pressure (4 mg/mL, Day 1, 1 hour after administration): −0.13 mmHg
Change of intraocular pressure (4 mg/mL, Day 1, 2 hours after administration): 3.16 mmHg
Change of intraocular pressure (4 mg/mL, Day 1, 4 hours after administration): 4.84 mmHg
Change of intraocular pressure (4 mg/mL, Day 1, 6 hours after administration): 5.72 mmHg
Change of intraocular pressure (4 mg/mL, Day 1, 8 hours after administration): 5.64 mmHg
Change of intraocular pressure (4 mg/mL, Day 1, 10 hours after administration): 5.78 mmHg
Change of intraocular pressure (4 mg/mL, Day 1, before administration): 0.22 mmHg
Mean intraocular pressure of both eyes (8.0 mg/mL both eyes, Day 1, 1 hour after administration): 7.69 mmHg
Mean intraocular pressure of both eyes (8.0 mg/mL both eyes, Day 1, 2 hours after administration): 6.39 mmHg
Mean intraocular pressure of both eyes (8.0 mg/mL both eyes, Day 1, 4 hours after administration): 7.06 mmHg
Mean intraocular pressure of both eyes (8.0 mg/mL both eyes, Day 1, 6 hours after administration): 7.11 mmHg
Mean intraocular pressure of both eyes (8.0 mg/mL both eyes, Day 1, 8 hours after administration): 7.22 mmHg
Mean intraocular pressure of both eyes (8.0 mg/mL both eyes, Day 1, 10 hours after administration): 7.97 mmHg
Mean intraocular pressure of both eyes (8.0 mg/mL both eyes, Day 1, before administration): 10.17 mmHg
Mean intraocular pressure of both eyes [13]: 6.33 mmHg
Change of intraocular pressure [13]: 4.75 mmHg
Mean intraocular pressure of both eyes [14]: 5.78 mmHg
Change of intraocular pressure [14]: 4.61 mmHg
Mean intraocular pressure of both eyes [15]: 5.97 mmHg
Change of intraocular pressure [15]: 4.64 mmHg
Mean intraocular pressure of both eyes [16]: 6.42 mmHg
Change of intraocular pressure [16]: 4.55 mmHg
Mean intraocular pressure of both eyes [17]: 5.56 mmHg
Change of intraocular pressure [17]: 3.75 mmHg
Mean intraocular pressure of both eyes [18]: 5.28 mmHg
Change of intraocular pressure [18]: 4.78 mmHg
Change of intraocular pressure (8.0 mg/mL once per day, Day 8, 4 hours after daily administration): 5.59 mmHg
Change of intraocular pressure (8.0 mg/mL once per day, Day 9, 4 hours after daily administration): 4.25 mmHg
Change of intraocular pressure (8.0 mg/mL once per day, Day 10, 4 hours after daily administration): 4.19 mmHg
Change of intraocular pressure (8.0 mg/mL once per day, Day 11, 4 hours after daily administration): 4.16 mmHg
Change of intraocular pressure (8.0 mg/mL once per day, Day 12, 4 hours after daily administration): 3.97 mmHg
Change of intraocular pressure (8.0 mg/mL once per day, Day 13, 4 hours after daily administration): 4.72 mmHg
Change of intraocular pressure (8.0 mg/mL once per day, Day 14, 4 hours after daily administration): 4.03 mmHg
Change of intraocular pressure (8.0 mg/mL, Day 1, 1 hour after administration): 2.62 mmHg
Change of intraocular pressure (8.0 mg/mL, Day 1, 2 hours after administration): 4.58 mmHg
Change of intraocular pressure (8.0 mg/mL, Day 1, 4 hours after administration): 4.25 mmHg
Change of intraocular pressure (8.0 mg/mL, Day 1, 6 hours after administration): 4.83 mmHg
Change of intraocular pressure (8.0 mg/mL, Day 1, 8 hours after administration): 5.75 mmHg
Change of intraocular pressure (8.0 mg/mL, Day 1, 10 hours after administration): 6.45 mmHg
Change of intraocular pressure (8.0 mg/mL, Day 1, before administration): −0.28 mmHg
Efficacy of a single dose (highest hypotensive effect and action duration) (all test doses (0.5-8.0 mg/mL), compared with K-115): superior efficacy
Hypotensive effect after 14 days of continuous administration (dose of 0.5 mg/mL): maintain a significant hypotensive effect
